Legend:
[1] = tested on: chorionic allantoic membrane (CAM); experiment: CAM assay of deoxy sugar-loaded biomaterials (in ovo, implanted day 8, scored day 14); format: in vivo, chicken (Gallus domesticus); conditions: loaded (1 mg/ml) in cross-linked chitosan/collagen hydrogels
Protocol: Fertilized chicken (Gallus domesticus) eggs were purchased from Big Bird (Raiwind road, Lahore, Pakistan) and incubated at 37° C. from day 2 of fertilization until day 8 in a humidified egg incubator (HHD, 435, China). At day 8, a square window (1 cm^2) was cut into the shell and removed, and a 2 cm^2 piece of the electrospun scaffold or hydrogels (16% PCL electrospun scaffold/CS/PVA hydrogel/CS/collagen hydrogels) placed onto the CAM. Each egg was implanted with one scaffold or hydrogel only.
The shell window was closed with parafilm (Bemis Flexible Packaging, USA) and sealed with adhesive tape. After implantation, eggs were placed again at 37° C. in a 40% humidified incubator until day 14. At day 14, biomaterials were retrieved and the eggs were sacrificed. Angiogenesis was quantified by taking light microscope pictures just before scaffold retrieval and then blindly scored by four assessors using histological images of the retrieved materials. The number of implanted and survived eggs is given in the caption of respective CAM assay figures.
D and L isomers of three-deoxysugars (ribose, fucose and rhamnose) were loaded onto the porous freeze gelated triethyl orthoformate (4%) covalently cross-linked chitosan/collagen (1:1) hydrogels. The hydrogels were soaked in an aqueous solution of sugars (1 mg/ml) and were further lyophilized (freeze dried) to produce porous membranes. As for the electrospun scaffold, the hydrogels were grafted into the fertilized eggs at day 8 and after day 14 the eggs were sacrificed and the effect of sugars on angiogenesis was investigated.

[2] = tested on: endothelial cell; conditions: in vitro; reported by Merchan et al. 2010; cited from earlier work
[3] = tested on: CAM; experiment: Ex-ovo CAM assay, implantation of E2 and 2dDR releasing PHBV scaffolds; format: in vivo, chicken (Gallus domesticus); conditions: for mean vessel count: control 23.1 (±1.24)
Protocol: (§1) All CAM experiments were carried out according to the Home Office, UK guidelines. Fertilised chicken eggs (Gallus domesticus) were purchased from Henry Stewart & Co. (MedEggs, Norwich, UK). The eggs were carefully wiped with 20% industrial methylated spirit (IMS) solution using hand paper towels in order to remove dirt and feathers from the shell. The eggs were then incubated at 37.5° C. until embryonic development day (EDD) 3, lying horizontally in an humidified egg incubator (RCOM King SURO, P&T Poultry, Powys, Wales).
(§2) On EDD3, the upper surface of the eggs were marked with a felt pen. The eggs were held horizontally (with the marked surface on top) and cracked on the edge of a 1000 ml glass beaker and kept close to the bottom surface of petri dishes. The embryos were then transferred gently into sterile petri dishes and kept in a humidified incubator (Binder, Tuttlingen, Germany) at 38° C.
Scaffolds were cut into 5.5 mm diameter circles using a laser cutting machine (Epilog Laser Cutter, Clevedon, UK) and sterilised under UV light for 1 hour prior to implantation. Two circular scaffolds were placed on CAM at EDD8. Images of the scaffolds were acquired using a digital microscope at EDD 12 and EDD14. Microinjection of rhodamine labelled lectin into the circulation was performed, CAMs were removed and fixed in 3.7% formaldehyde solution. Embryos were then sacrificed at the end of EDD14. Angiogenesis was quantified by counting all blood vessels that converged towards the graft.
Haematoxylin and Eosin (H&E) staining was performed on cell impregnated scaffolds by modifiying a standard protocol. Briefly, fixed samples were embedded in optimal cutting temperature OCT and frozen in liquid nitrogen for 3 minutes. Sections were cut 8-10 μm thick using a cryostat (Leica Biosystems Nussloch, Germany) at −20° C. Sections were then stained with haematoxylin for 90 seconds and eosin for 5 minutes respectively. Finally H&E images were acquired under a light microscope (Motic DM-B1, Xiamen, China). The total number of blood vessels adjacent to the scaffolds were quantified by counting blood vessels in H&E sections [A. Minajeva, M. Kase, M. Saretok, A. Adamson-Raieste, S. Kase, K. Niinepuu, M Vardja, T. Asser, J. Jaal, Impact of Blood Vessel Quantity and Vascular Expression of CD133 and ICAM-1 on Survival of Glioblastoma Patients, Neurosci J. 2017 (2017) 8 pages] Briefly, all discernible blood vessels adjacent to the scaffolds were counted by two independent researchers using two independent microscopes at 10× magnification from the total of six different slides for each group and six different area of interest from each slide.

[4] = E2 and 2dDR release from PHBV scaffolds in PBS; format: physicochemical; conditions: within 7 days
Protocol: 10% (w/w) PHBV solution loaded was prepared prior to electrospinning. 1 g of PHBV granules (Goodfellow, London, UK) were dissolved in 1 g of methanol (Fisher Scientific, Massachusetts, USA) and 8 g of DCM (Fisher Scientific, Massachusetts, USA) in a fume hood. Four 10% PHBV solutions were prepared prior to addition of substances. Finally, 25 mg E2, 50 mg of E2, 250 mg of 2dDR and 500 mg of 2dDR were then added to each solution per 1 g of PHBV. The mixtures were magnetically stirred overnight.
Scaffolds were cut into pieces so to fit into an 6-well plate, weighed and submerged in 4 ml of PBS. The E2 and 2dDR concentrations released from each group (25 mg E2, 50 mg E2, 250 mg 2dDR, 500 mg 2dDR) were measured […] using a UV-VIS spectrophotometer (Thermo Fischer Evolution 220, Massachusetts, USA) at 238 nm for 2dDR and 220 nm for E2. Absorbance values were converted into concentrations using a standard curve of known concentrations of E2 and 2dDR.

[5] = tested on: CAM; experiment: Ex-ovo CAM assay, direct application of substances; format: in vivo, chicken (Gallus domesticus); conditions: over 4 days
Protocol: as §1, §2
Plastic rings (˜6.5 mm in diameter) were used as a reservoir for substances and a marker for the implantation area, were placed on the CAM, and the substances were applied as 20 μl volume onto the CAM twice a day to give a […] between EDD7 and EDD11. Images of the rings were acquired using a digital microscope at EDD11, and then 20% lens culinaris agglutinin (LCA) (Vector Laboratories, Peterborough, UK) was injected into the circulation for labelling the intravascular endothelial cells using 30G needles under a dissection microscope (Wild Heerbrugg, Heerbrugg, Switzerland). CAMs were then removed and fixed in 3.7% formaldehyde solution. Embryos were sacrificed at the end of EDD11. Fixed CAM samples were then imaged under a confocal microscope (Zeiss LSM 510 Meta, Jena, Germany) for investigating the effect of substances on the microvascular structure of the CAMs.
Blood vessels were quantified by segmentation of the images [C. Roma-Rodrigues, A. Heuer-Jungemann, A. R. Fernandes, A. G. Kanaras, P. V. Baptista, Peptide-coated gold nanoparticles for modulation of angiogenesis in vivo, IntJ Nanomedicine. 11 (2016) 2633-2639. doi: 10.2147/IJN.S108661] so as to include all discernible vessels and then counting the branch points and calculating average vessel lengths [D. Ribatti, B. Nico, A. Vacca, M. Presta, The gelatin sponge-chorioallantoic membrane assay, Nat Protoc. 1 (2006) 85-91. doi: 10.1038/nprot.2006.13, P. Brooks, A. P. Montgomery, D. Cheresh, Use of the 10-Day-Old Chick Embryo Model for Studying Angiogenesis, Integrin Protoc. 129 (1999) 257-269. doi: 10.1385/1-59259-249-X: 257] via multiple image processing steps. Firstly, the internal area of the ring was cropped, and the red, green and blue channels were split using Adobe Photoshop CS6 (ADOBE Systems Inc., San Jose, California, USA). The green channel was then imported to ImageJ (Wayne Rasband, National Institutes of Health, USA) for further analysis including unsharp mask filtering, enhancing the local contrast, noise removal and segmentation. Finally, the number of branch points was quantified using quantification software (AngioTool, National Cancer Institute, USA) (FIG. 14A) and average blood vessel lengths were calculated by using binary image histograms with known pixel/mm ratios in ImageJ (Wayne Rasband, National Institutes of Health, USA).
The percentage vascular area (VA %) of the microvasculature of CAMs were quantified using confocal images of rhodamine labelled lectin injected CAM samples as shown in FIG. 14B. To do this, images were imported to ImageJ (Wayne Rasband, National Institutes of Health, USA) and converted to binary images after filtering and smoothing processes prior to quantification. VA % was calculated using the histogram list of black and white areas in the image.
All chemicals were purchased from Sigma Aldrich unless indicated otherwise. […]

For `C[C@@H](O)[C@H](O)[C@H](O)[C@@H](O)C=O` [Deoxy-D-fucose, D-fucose, reference compound], the angiogenic response [1] was “no significant response”.
With `C[C@@H](O)[C@@H](O)[C@H](O)[C@H](O)C=O` [Deoxy-D-rhamnose, D-rhamnose, reference compound] the angiogenic response [1] was “only a marginal response”.
For `O=CC[C@@H](O)[C@H](O)[C@H](O)CO` [2-DG, 2-deoxy-D-Glucose], the antiangiogenic activity [2] is given as “inhibited endothelial capillary formation and endothelial cell migration”.
In the case of `C[C@]12CC[C@@H]3c4ccc(O)cc4CC[C@H]3[C@@H]1CC[C@@H]2O` [E2, Oestradiol, reference compound], the mean vessel count ([3]; 25 mg E2 loaded PHBV scaffolds) is reported as 49.5 (±0.92), the mean vessel count ([3]; 50 mg E2 loaded PHBV scaffolds) is reported as 37.9 (±1.05) and the “mean number of blood vessels adjacent to the scaffolds (H&E sections)” value ([3]; all concentrations, compared with controls and CAM only groups) is reported as “significantly increased”. The “number of discernible blood vessels growing towards the scaffolds in comparison with plain PHBV scaffolds” value ([3]; all groups of releasing PHBV scaffolds) was “at least doubled”, the “total release from scaffolds, of the initial amount present in the polymer solution” value ([4]; 25 mg E2 per 1 g PHBV scaffold) was 1.3% and the “total release from scaffolds, of the initial amount present in the polymer solution” value ([4]; 50 mg E2 per 1 g PHBV scaffold) was 1.6%. The “increase of number of branch points compared to controls” value (“increase of number of branch points” for short) ([5]; E2 100 ng/day) was 1.3 fold, the “increase of number of branch points” value ([5]; E2 200 ng/day) was 1.5 fold and the “percentage vascular area (VA %) of microvasculature” value ([5]; E2 200 ng/day, control 55.3%±3%) was 79.5%±5%. For the same compound, the “increase of number of branch points” value ([5]; E2 600 ng/day) was 1.4 fold and the “increase of average vessel length compared to controls” value ([5]; all E2 concentrations (100, 200, 600 ng/day)) was 1.2 fold.

— patent US20250099486A1, “WOUND HEALING MEDICAMENT” (The University of Sheffield, priority 2017, published 2025)
